Experimental findings from patent US10624948B2, “Use of cell-permeable peptide inhibitors of the JNK signal transduction pathway for the treatment of various diseases” (Xigen Inflammation Ltd., priority 2013, dated 2020) are described below.

Square brackets hold non-standard residues; d marks the D form. Ends that are not written are not given here.

In data set [1] the test system is Sprague-Dawley albino rats, light-induced photoreceptor cell death. The format is in vivo. The method, then: The aim of this study was to investigate the dose effect of XG-102 on light-induced photoreceptor cell death.
Test item (XG-102: 30 mg/ml, 3 mg/ml, and 0.3 mg/ml) and vehicle (0.9% NaCl) were administered by intravitreal injection in right eyes the day before induction. The reference (Phenyl-N-test-Butylnitrone (PBN) (50 mg/kg)) and vehicle were intraperitoneally injected 30 min before induction then, 3 times during 12 hours of light exposition, then once after induction. Animals were placed in constant light (7000 lux) for 24 h. Electroretinograms (ERG) were recorded before light treatment and on days 9, 16 and 23 after induction. Eyes were then taken for histology and outer nuclear layer (ONL) thickness assessment. The table below summarizes the allocation of animals in treatment groups:
For the intravitreal injection animals were anesthetized by intramuscular injection of a mixture of xylazine/ketamine. Test item (5 μl) and vehicle (5 μl) were injected in the right eye. The injection was performed under an operating microscope in the supratemporal area at pars plana using a 33G-needle mounted on a 50 μl Hamilton. The filled syringe was mounted into the UltraMicroPump III to achieve accurate injection in microliter range. Reference and vehicle were injected intraperitoneally at a dose volume of 2.5 ml/kg using a 30G-needle mounted on a 1 ml-syringe.
Light Exposure: The rats that had been dark-adapted overnight were exposed for 24 hours to a continuous white fluorescent light (7000 lx) in clear plastic cages. Each cage contained one rat. After exposure, the rats returned to rearing cyclic light conditions.
ERG was recorded before induction and 7, 14 and 21 days after cessation of exposure (Days 9, 16 and 23) on right eyes of dark-adapted and anesthezied animals. The latency times (for a- and b-wave) and the a-wave and b-wave amplitudes were measured for each ERG; the latency times were expressed as millisecond and the a-wave and b-wave as a percentage of the baseline value obtained before light exposure. 15 min before measurement 10 μl Mydriaticum® (0.5% tropicamide) were instilled for pupillary dilatation.
Measurement of the ONL Thickness: After ERG testing, animal was euthanized by an overdose of pentobarbital and the right eyes were enucleated, fixed and embedded in paraffin. Sections (5 μm thick) were performed along the vertical meridian and stained with Trichrome-Masson. The vertical meridian included the optic nerve.

The subject of another data set is TC-3 cells. Nature of the data set: IL-1 induced pancreatic beta-cell death. It is filed as cell-based. Conditions: one single addition 1 μM. Here is the method: Inhibition of IL-1 induced pancreatic beta-cell death by the D-TAT-IB1(s) peptide was analyzed. TC-3 cells were incubated as described above for 30 minutes with one single addition of the indicated peptides (1, μM), then IL-1 (10 ng/ml) was added.
Apoptotic cells were then counted after two days of incubation with IL-1 by use of Propidium Iodide and Hoechst 33342 nuclear staining. A minimum of 1,000 cells were counted for each experiment. Standard Error of the Means (SEM) are indicated, n=5.
Long term inhibition of IL-1P induced cell-death by the D-TAT-IB1 peptide was also analyzed. TC-3 cells were incubated as above for 30 minutes with one single addition of the indicated peptides (1 μM), then IL-1 (10 ng/ml) was added, followed by addition of the cytokine every two days. Apoptotic cells were then counted after 15 days of incubation with IL-1 by use of propidium iodide and Hoechst 33342 nuclear staining. […] A minimum of 1.000 cells were counted for each experiment.

In data set [2] the test system is recombinant JNK1, JNK2 and JNK3. Kind of data set: Solid phase kinase assay, phosphorylation of c-Jun, ATF2 and Elk1. The format is biochemical. To be noted: dose response 0-25 μM. Here is the method: The effects of the peptides on JNKs-mediated phosphorylation of their target transcription factors were investigated in vitro. Recombinant and non activated JNK1, JNK2 and JNK3 were produced using a TRANSCRIPTION AND TRANSLATION rabbit reticulocyte lysate kit (Promega) and used in solid phase kinase assays with c-Jun, ATF2 and Elk1, either alone or fused to glutathione-S-transferase (GST), as substrates. Dose response studies were performed wherein L-TAT or L-TAT-IB1(s) peptides (0-25 μM) were mixed with the recombinant JNK1, JNK2, or JNK3 kinases in reaction buffer (20 mM Tris-acetate, 1 mM EGTA, 10 mM p-nitrophenyl-phosphate (pNPP), 5 mM sodium pyrophosphate, 10 mM p-glycerophosphate, 1 mM dithiothreitol) for 20 minutes. The kinase reactions were then initiated by the addition of 10 mM MgCl2 and 5 pCi ^33P-dATP and 1 μg of either GST-Jun (aa 1-89), GST-AFT2 (aa 1-96) or GST-ELK1 (aa 307-428). GST-fusion proteins were purchased from Stratagene (La Jolla, Calif.).
Ten μL of glutathione-agarose beads were also added to the mixture. Reaction products were then separated by SDS-PAGE on a denaturing 10% polyacrylamide gel. Gels were dried and subsequently exposed to X-ray films (Kodak). […] The ability of D-TAT, D-TAT-IB1(s) and L-TAT-IB1(s) peptides (0-250 μM dosage study) to inhibit GST-Jun (aa 1-73) phosphorylation by recombinant JNK1, JNK2, and JNK3 by were analyzed as described above. […]

Data set [3] relates to JNK signaling in HeLa cells (GAL-Jun, MKK4/MKK7). Kind of data set: GAL4 luciferase reporter of c-Jun activation. The format is cell-based. Conditions: 1 μM, 16 hours. The text has this:
To determine whether the cell-permeable peptides as defined herein could block JNK signaling in vivo, we used a heterologous GAL4 system. HeLa cells, cultured as described above, were co-transfected with the 5×GAL-LUC reporter vector together with the GAL-Jun expression construct (Stratagene) comprising the activation domain of c-Jun (amino acids 1-89) linked to the GAL4 DNA-binding domain. Activation of JNK was achieved by the co-transfection of vectors expressing the directly upstream kinases MKK4 and MKK7 (see Whitmarsh et al., Science 285: 1573 (1999)). Briefly, 3×10^5 cells were transfected with the plasmids in 3.5-cm dishes using DOTAP (Boehringer Mannheim) following instructions from the manufacturer. For experiments involving GAL-Jun, 20 ng of the plasmid was transfected with 1 μg of the reporter plasmid pFR-Luc (Stratagene) and 0.5 μg of either MKK4 or MKK7 expressing plasmids. Three hours following transfection, cell media were changed and TAT and TAT-IB1(s) peptides (1 μM) were added. The luciferase activities were measured 16 hours later using the “Dual Reporter System” from Promega after normalization to protein content. […] Because HeLa cells express JNK1 and JNK2 isoforms but not JNK3, we transfected cells with JNK3.
For orientation: A reporter such as luciferase makes a cellular process visible.

For data set [4], the system named is AP-1 DNA binding complex, HeLa cell nuclear extracts. Kind of data set: Gel retardation assay with AP-1 probe. It is filed as cell-based. To be noted: in the presence of TNF-alpha.
Data set [5] concerns JNKs from UV-light irradiated HeLa cells or IL-1 treated PTC cells. Nature of the data set: c-Jun phosphorylation by activated JNKs pulled down with GST-Jun. It is filed as biochemical. To be noted: 25 μM. Here is the method:
The effects of the L-TAT or L-TAT-IB1(s) peptides as defined herein on JNKs activated by stressful stimuli were evaluated using GST-Jun to pull down JNKs from UV-light irradiated HeLa cells or IL-1 treated PTC cells. PTC cells were cultured as described above. HeLa cells were cultured in DMEM medium supplemented with 10% Fetal Calf Serum, 100 μg/mL Streptomycin, 100 units/ml Penicillin and 2 mM Glutamine. One hour prior to being used for cell extract preparation, PTC cells were activated with IL-1 as described above, whereas HeLa cells were activated by UV-light (20 J/m^2). Cell extracts were prepared from control, UV-light irradiated HeLa cells and IL-1 treated TC-3 cells by scraping the cell cultures in lysis buffer (20 mM Tris-acetate, 1 mM EGTA, 1% Triton X-100, 10 mM p-nitrophenyl-phosphate, 5 mM sodium pyrophosphate, 10 mMP-glycerophosphate, 1 mM dithiothreitol). Debris was removed by centrifugation for five minutes at 15,000 rpm in an SS-34 Beckman rotor. One-hundred μg extracts were incubated for one hour at room temperature with one μg GST-jun (amino acids 1-89) and 10 μL of glutathione-agarose beads (Sigma). Following four washes with the scraping buffer, the beads were resuspended in the same buffer supplemented with L-TAT or L-TAT-IB1(s) peptides (25 μM) for 20 minutes. […]

The test system of another data set is TC-3 cell cultures. Nature of the data set: Cellular import of fluorescein labeled TAT and TAT-IB1(s) peptides. The format is cell-based. Conditions: labeled peptides 1 μM. The method, then: The ability of the L- and D-enantiomeric forms of TAT and TAT-IB1(s) peptides (“TAT-IB peptides”) to enter cells was evaluated. L-TAT, D-TAT, L-TAT-IB1(s), and D-TAT-IB1(s) peptides [SEQ ID NOs: 5, 6, 9 and 12, respectively] were labeled by N-terminal addition of a glycine residue conjugated to fluorescein. Labeled peptides (1 μM) were added to TC-3 cell cultures, which were maintained as described in Example 3. At predetermined times cells were washed with PBS and fixed for five minutes in ice-cold methanol-acetone (1:1) before being examined under a fluorescence microscope. Fluorescein-labeled BSA (1 μM, 12 moles/mole BSA) was used as a control.
Little to no signal was present at 48 hours.
Fluorescent signals from these all-D retro-inverso peptides were still very strong 1 week later, and the signal was only slightly diminished at 2 weeks post treatment.

`CC(C)(C)[N+]([O-])=Cc1ccccc1` [PBN, Phenyl-N-tert-Butylnitrone, reference compound]: in data set [1] (PBN i.p., Day 23), the “decrease of mean ONL thickness vs untreated eyes” value came to 16%. Also, the “ERG B-wave amplitude, percent of the baseline, Mean ± SD” value in data set [1] (rat, in vivo, ip, 50 mg/kg) turned out to be 100 ± 18.6%.

On to “GRKKRRQRRRPPRPKRPTTLNLFPQVPRSQD (Description of sequence: L-TAT-IB1 (s) (see Table 1)) [L-TAT-IB1(s)]”, for which the “long term (15 day) protection from IL-1 induced cell-death” value in the data set with TC-3 cells (IL-1 every two days) was “but not L-TAT-IB1(s), was able to confer long term (15 day) protection”. Also, in data set [2], the “peptide dose giving nearly complete inhibition of c-Jun, ATF2 and Elk1 phosphorylation by JNKs” value amounted to 2.5 µM. In data set [3], the “activation of c-Jun following MKK4 and MKK7 mediated activation of JNK (luciferase)” value was “blocked activation of c-Jun following MKK4 and MKK7 mediated activation of JNK”. Besides, in data set [4], the “formation of the AP-1 DNA binding complex” value is recorded as “decrease the formation of the AP-1 DNA binding complex”. Moreover, the “prevention of phosphorylation of c-Jun by activated JNKs” value in data set [5] was “efficiently prevented phosphorylation of c-Jun by activated JNKs”.

With “Fluorescein-labeled BSA: fluorescein labeled bovine serum albumin (1 μM BSA, 12 moles fluorescein/mole BSA), control”, the entry into cells result in the data set with TC-3 cell cultures is reported as “did not enter the cells”.

Turning to “TDQSRPVQPFLNLTTPRKPRYTDPPRRRQRRKKRG ([dT][dD][dQ][dS][dR][dP][dV][dQ][dP][dF][dL][dN][dL][dT][dT][dP][dR][dK][dP][dR][dY][dT][dD][dP][dP][dR][dR][dR][dQ][dR][dR][dK][dK][dR]G) [D-TAT-IB1]”, the “IL-1 induced apoptosis after two days” value in the data set on TC-3 cells (IL-1 10 ng/ml) is given as “decreased IL-1 induced apoptosis to a similar extent as L-TAT-IB peptides”.
